Data: PMC4450297, “Screening Active Compounds from Garcinia Species Native to China Reveals Novel Compounds Targeting the STAT/JAK Signaling Pathway” (BioMed Research International, 2015)

Columns and labels:
Experiment in all cases: Cell panel screen (CellTiter-Glo)
Assay type in all cases: cell-based, human
A498 = A498 (listed under Lung), 20 micromolar, 72 hrs
Experimental: (§1) All cells were obtained from the cell bank of the American Type Culture Collection (ATCC) and cultured in the supplier's recommended media supplemented with 10% FBS. The cell panel screen was measured using the CellTiter-Glo assay (Promega, Madison, WI) following a standard protocol. Briefly, cancer cells were seeded in 96-well plates and cultured overnight at 37°C with or without 5% CO2 in an incubator. Each compound was dissolved with limited DMSO and diluted to a certain concentration with culture medium and then added to the corresponding well of the cell plate. The final concentration of compound was 20 μM. The control cells (without treatment) received the same amount of DMSO and were incubated under the same conditions. After 72 h cultivation, 100 μL of the CellTiter-Glo reagent was added directly to each well for 10-minute incubation. The plate was then read on a FlexStation 3 microplate luminometer (Molecular Devices, USA) to monitor the luminescence signal generated by the luciferase-catalyzed reaction of luciferin and ATP. The percent of growth inhibition was calculated using the following formula: (untreated cells − treated cells)/(untreated cells − background without cells) ∗ 100.

A704 = A704 (Kidney), 20 micromolar, 72 hrs
Experimental: as §1

BT-474 = BT-474 (Breast), 20 micromolar, 72 hrs
Experimental: as §1

BT-549 = BT-549 (Breast), 20 micromolar, 72 hrs
Experimental: as §1

Bel-7402 = Bel-7402 (Liver), 20 micromolar, 72 hrs
Experimental: as §1

C3A = C3A (Liver), 20 micromolar, 72 hrs
Experimental: as §1

C8166 = C8166 (Leukemia), 20 micromolar, 72 hrs
Experimental: as §1

CCF-STTG1 = CCF-STTG1 (Brain), 20 micromolar, 72 hrs
Experimental: as §1

CW-2 = CW-2 (Colon), 20 micromolar, 72 hrs
Experimental: as §1

ChaGo-K-1 = ChaGo-K-1 (Lung), 20 micromolar, 72 hrs
Experimental: as §1

Colo 205 = conditions: Colo 205, 20 micromolar, 72 hrs
Experimental: as §1

HCC1395 = HCC1395 (Breast), 20 micromolar, 72 hrs
Experimental: as §1

HCC1569 = HCC1569 (Breast), 20 micromolar, 72 hrs
Experimental: as §1

HCC1599 = HCC1599 (Breast), 20 micromolar, 72 hrs
Experimental: as §1

HCC1937 = HCC1937 (Breast), 20 micromolar, 72 hrs
Experimental: as §1

HEC-1-A = HEC-1-A (Uterus), 20 micromolar, 72 hrs
Experimental: as §1

HGC-27 = HGC-27 (Stomach), 20 micromolar, 72 hrs
Experimental: as §1

HPAF-II = HPAF-II (Pancreas), 20 micromolar, 72 hrs
Experimental: as §1

HT-1197 = HT-1197 (Urinary bladder), 20 micromolar, 72 hrs
Experimental: as §1

J82 = J82 (Urinary bladder), 20 micromolar, 72 hrs
Experimental: as §1

M059J = M059J (Brain), 20 micromolar, 72 hrs
Experimental: as §1

MSTO-211-H = MSTO-211-H (Lung), 20 micromolar, 72 hrs
Experimental: as §1

NCI-H1623 = NCI-H1623 (Lung), 20 micromolar, 72 hrs
Experimental: as §1

NCI-H1694 = NCI-H1694 (Lung), 20 micromolar, 72 hrs
Experimental: as §1

NCI-H1770 = NCI-H1770 (Lung), 20 micromolar, 72 hrs
Experimental: as §1

NCI-H2347 = NCI-H2347 (Lung), 20 micromolar, 72 hrs
Experimental: as §1

NCI-H2405 = NCI-H2405 (Lung), 20 micromolar, 72 hrs
Experimental: as §1

NCI-H28 = NCI-H28 (Lung), 20 micromolar, 72 hrs
Experimental: as §1

NCI-H524 = NCI-H524 (Lung), 20 micromolar, 72 hrs
Experimental: as §1

Panc 03.27 = Panc 03.27 (Pancreas), 20 micromolar, 72 hrs
Experimental: as §1

RL95 = RL95 (Uterus), 20 micromolar, 72 hrs
Experimental: as §1

SW13 = SW13 (Adrenal gland), 20 micromolar, 72 hrs
Experimental: as §1

T47D = T47D (Breast), 20 micromolar, 72 hrs
Experimental: as §1

T98G = T98G (Brain), 20 micromolar, 72 hrs
Experimental: as §1

TCCSUP = TCCSUP (Urinary bladder), 20 micromolar, 72 hrs
Experimental: as §1

ZR-75-30 = ZR-75-30 (Breast), 20 micromolar, 72 hrs
Experimental: as §1

In the case of `COc1cc(O)c2c(=O)c3ccc(O)c(O)c3oc2c1CC=C(C)C` [gl-17], the “Percent Inhibition” value (A498) is reported as 75%, the “Percent Inhibition” value (A704) is reported as 42% and the “Percent Inhibition” value (BT-474) is reported as 89%. The “Percent Inhibition” value (BT-549) was 65%, the “Percent Inhibition” value (Bel-7402) was 60% and the “Percent Inhibition” value (C3A) was 89%. For the same molecule, the “Percent Inhibition” value (C8166) was 90%, the “Percent Inhibition” value (CCF-STTG1) was 74% and the “Percent Inhibition” value (CW-2) was 96%. For the same molecule, the “Percent Inhibition” value (ChaGo-K-1) was 87%, the “Percent Inhibition” value (Colo 205) was 97% and the “Percent Inhibition” value (HCC1395) was 89%. The “Percent Inhibition” value (HCC1569) was 74%, the “Percent Inhibition” value (HCC1599) was 93% and the “Percent Inhibition” value (HCC1937) was 83%. For the same molecule, the “Percent Inhibition” value (HEC-1-A) was 76%, the “Percent Inhibition” value (HGC-27) was 92% and the “Percent Inhibition” value (HPAF-II) was 89%. The “Percent Inhibition” value (HT-1197) was 95%, the “Percent Inhibition” value (J82) was 88% and the “Percent Inhibition” value (M059J) was 91%. For the same molecule, the “Percent Inhibition” value (MSTO-211-H) was 79%, the “Percent Inhibition” value (NCI-H1623) was 41% and the “Percent Inhibition” value (NCI-H1694) was 98%. The “Percent Inhibition” value (NCI-H1770) was 40%, the “Percent Inhibition” value (NCI-H2347) was 86% and the “Percent Inhibition” value (NCI-H2405) was 19%. For the same molecule, the “Percent Inhibition” value (NCI-H28) was 76%, the “Percent Inhibition” value (NCI-H524) was 98% and the “Percent Inhibition” value (Panc 03.27) was 84%. For the same molecule, the “Percent Inhibition” value (RL95) was 87%, the “Percent Inhibition” value (SW13) was 85% and the “Percent Inhibition” value (T47D) was 72%. For the same molecule, the “Percent Inhibition” value (T98G) was 85%, the “Percent Inhibition” value (TCCSUP) was 83% and the “Percent Inhibition” value (ZR-75-30) was 98%.
With `O=C1CC(c2ccc(O)c(O)c2)Oc2cc(OC3OC(C(=O)O)C(O)C(O)C3O)cc(O)c21` (stereo not drawn) [gly-2] the “Percent Inhibition” value (A498) was -7%, the “Percent Inhibition” value (A704) was -14% and the “Percent Inhibition” value (BT-474) was -18%. The “Percent Inhibition” value (BT-549) was -14%, the “Percent Inhibition” value (Bel-7402) was -14% and the “Percent Inhibition” value (C3A) was -5%. For the same molecule, the “Percent Inhibition” value (C8166) was -12%, the “Percent Inhibition” value (CCF-STTG1) was 1% and the “Percent Inhibition” value (CW-2) was -2%. The “Percent Inhibition” value (ChaGo-K-1) was -33%, the “Percent Inhibition” value (Colo 205) was -6% and the “Percent Inhibition” value (HCC1395) was 8%. For the same molecule, the “Percent Inhibition” value (HCC1569) was -6%, the “Percent Inhibition” value (HCC1599) was -8% and the “Percent Inhibition” value (HCC1937) was -2%. The “Percent Inhibition” value (HEC-1-A) was -19%, the “Percent Inhibition” value (HGC-27) was 0% and the “Percent Inhibition” value (HPAF-II) was -1%. For the same molecule, the “Percent Inhibition” value (HT-1197) was -8%, the “Percent Inhibition” value (J82) was -6% and the “Percent Inhibition” value (M059J) was -1%. For the same molecule, the “Percent Inhibition” value (MSTO-211-H) was 7%, the “Percent Inhibition” value (NCI-H1623) was 6% and the “Percent Inhibition” value (NCI-H1694) was -10%. For the same molecule, the “Percent Inhibition” value (NCI-H1770) was -4%, the “Percent Inhibition” value (NCI-H2347) was -2% and the “Percent Inhibition” value (NCI-H2405) was -2%. The “Percent Inhibition” value (NCI-H28) was -21%, the “Percent Inhibition” value (NCI-H524) was -15% and the “Percent Inhibition” value (Panc 03.27) was 2%. The “Percent Inhibition” value (RL95) was 2%, the “Percent Inhibition” value (SW13) was -14% and the “Percent Inhibition” value (T47D) was -2%. For the same molecule, the “Percent Inhibition” value (T98G) was -3%, the “Percent Inhibition” value (TCCSUP) was -4% and the “Percent Inhibition” value (ZR-75-30) was 15%.
In the case of `CC(C)=CCc1c2c(c(O)c3c1O[C@]14C(=C[C@@H]5C[C@H]1C(C)(C)O[C@@]4(C/C=C(\C)CO)C5=O)C3=O)C=CC(C)(C)O2` [GB18], the “Percent Inhibition” value (A498) is reported as 93%, the “Percent Inhibition” value (A704) is reported as 99% and the “Percent Inhibition” value (BT-474) is reported as 99%. For the same molecule, the “Percent Inhibition” value (BT-549) was 99%, the “Percent Inhibition” value (Bel-7402) was 99% and the “Percent Inhibition” value (C3A) was 99%. For the same molecule, the “Percent Inhibition” value (C8166) was 99%, the “Percent Inhibition” value (CCF-STTG1) was 99% and the “Percent Inhibition” value (CW-2) was 99%. The “Percent Inhibition” value (ChaGo-K-1) was 99%, the “Percent Inhibition” value (Colo 205) was 99% and the “Percent Inhibition” value (HCC1395) was 99%. The “Percent Inhibition” value (HCC1569) was 99%, the “Percent Inhibition” value (HCC1599) was 99% and the “Percent Inhibition” value (HCC1937) was 98%. For the same molecule, the “Percent Inhibition” value (HEC-1-A) was 99%, the “Percent Inhibition” value (HGC-27) was 99% and the “Percent Inhibition” value (HPAF-II) was 99%. For the same molecule, the “Percent Inhibition” value (HT-1197) was 99%, the “Percent Inhibition” value (J82) was 99% and the “Percent Inhibition” value (M059J) was 99%. The “Percent Inhibition” value (MSTO-211-H) was 99%, the “Percent Inhibition” value (NCI-H1623) was 99% and the “Percent Inhibition” value (NCI-H1694) was 99%. For the same molecule, the “Percent Inhibition” value (NCI-H1770) was 99%, the “Percent Inhibition” value (NCI-H2347) was 97% and the “Percent Inhibition” value (NCI-H2405) was 99%. The “Percent Inhibition” value (NCI-H28) was 98%, the “Percent Inhibition” value (NCI-H524) was 100% and the “Percent Inhibition” value (Panc 03.27) was 99%. For the same molecule, the “Percent Inhibition” value (RL95) was 99%, the “Percent Inhibition” value (SW13) was 99% and the “Percent Inhibition” value (T47D) was 99%. For the same molecule, the “Percent Inhibition” value (T98G) was 99%, the “Percent Inhibition” value (TCCSUP) was 99% and the “Percent Inhibition” value (ZR-75-30) was 99%.
In the case of `CC(C)=CCc1c(O)c(O)cc2oc3cc(O)cc(O)c3c(=O)c12` [bn-10, 1,3,6,7-tetrahydroxy-8-(3-methylbut-2-enyl)xanthone], the “Percent Inhibition” value (A498) is reported as 25%, the “Percent Inhibition” value (A704) is reported as -11% and the “Percent Inhibition” value (BT-474) is reported as -3%. The “Percent Inhibition” value (BT-549) was -4%, the “Percent Inhibition” value (Bel-7402) was 7% and the “Percent Inhibition” value (C3A) was 20%. For the same molecule, the “Percent Inhibition” value (C8166) was 23%, the “Percent Inhibition” value (CCF-STTG1) was 8% and the “Percent Inhibition” value (CW-2) was 25%. The “Percent Inhibition” value (ChaGo-K-1) was 18%, the “Percent Inhibition” value (Colo 205) was 19% and the “Percent Inhibition” value (HCC1395) was 8%. For the same molecule, the “Percent Inhibition” value (HCC1569) was 16%, the “Percent Inhibition” value (HCC1599) was 77% and the “Percent Inhibition” value (HCC1937) was 32%. For the same molecule, the “Percent Inhibition” value (HEC-1-A) was 22%, the “Percent Inhibition” value (HGC-27) was 30% and the “Percent Inhibition” value (HPAF-II) was -2%. The “Percent Inhibition” value (HT-1197) was 8%, the “Percent Inhibition” value (J82) was 29% and the “Percent Inhibition” value (M059J) was 9%. For the same molecule, the “Percent Inhibition” value (MSTO-211-H) was 4%, the “Percent Inhibition” value (NCI-H1623) was -10% and the “Percent Inhibition” value (NCI-H1694) was 28%. For the same molecule, the “Percent Inhibition” value (NCI-H1770) was 0%, the “Percent Inhibition” value (NCI-H2347) was 9% and the “Percent Inhibition” value (NCI-H2405) was -8%. For the same molecule, the “Percent Inhibition” value (NCI-H28) was 12%, the “Percent Inhibition” value (NCI-H524) was -20% and the “Percent Inhibition” value (Panc 03.27) was -1%. The “Percent Inhibition” value (RL95) was 15%, the “Percent Inhibition” value (SW13) was 11% and the “Percent Inhibition” value (T47D) was 4%. The “Percent Inhibition” value (T98G) was 21%, the “Percent Inhibition” value (TCCSUP) was 33% and the “Percent Inhibition” value (ZR-75-30) was 77%.
